Patent publication US20090176817A1, “Method of Treatment of Diarrhea-Predominant Irritable Bowel Syndrome in a Subject” (priority 2005, published 2009)
Marks after values point to notes of the source that are not given here.

Legend:
[1] = Study S.241.1.110: pharmacokinetics in renal impairment, 2 mg TID; conditions: for AUC(0-τ) / Cmax / T½ / Tmax / Cmin: cilansetron 2 mg TID; for AUC(0-τ) / Cmax / T½ / Cmin: mean (%CV); for Tmax: median; for Cmin: Day 6 morning predose value
Description: The effect of renal impairment on the pharmacokinetics of cilansetron was evaluated in a study excluding subjects with end-stage renal disease, and utilizing a single-center, open-label, multiple-dose, parallel group study in 13 male and 9 female subjects, aged 33-74 years. […] Healthy subjects were matched to renally-impaired subjects with respect to age, weight, gender, and smoking status. All subjects received oral cilansetron 2 mg TID on Days 1 to 5, and a single dose on the morning of Day 6. Blood samples for measurement of plasma pharmacokinetics of cilansetron and its 4-hydroxy metabolites were collected up to 24 hours following dosing on Day 6, and log-transformed pharmacokinetic parameters for these analytes were statistically compared between study groups. Serum concentrations of unbound cilansetron and its 4-hydroxy metabolites were also measured prior to dosing and at 1 and 1.5 hours postdose on Day 6.

[2] = Study S.241.1.107: pharmacokinetics in hepatic impairment, 8 mg TID; conditions: for AUC(0-τ): AUC(0-8); for AUC(0-τ) / Cmax / T½: arith. mean (%CV); for Tmax: median
[3] = Study S.241.1.110: ex vivo protein binding in serum, healthy and renally impaired; conditions: for Fraction unbound ratio All Renal Groups Combined:Healthy / Fraction unbound ratio Mild:Healthy / Fraction unbound ratio Moderate:Healthy / Fraction unbound ratio Severe:Healthy: ratio (90% CI)
Description: The ex vivo protein binding of cilansetron and its 4-hydroxy metabolites has been measured in serum samples collected in a multiple-dose study in healthy and renally impaired male and female subjects, aged 33-74 years. […] Healthy subjects were matched to renally-impaired subjects with respect to age, weight, gender, and smoking status. All subjects received oral cilansetron 2 mg TID on Days 1 to 5, and a single dose on the morning of Day 6.

[4] = moderate renal impairment, Day 6
[5] = geometric LS mean ratio impaired/healthy, cilansetron 8 mg TID oral
[6] = healthy, cilansetron 8 mg TID oral
[7] = hepatically impaired, cilansetron 8 mg TID oral

What does the source list for Cc1nccn1CC1CCc2c(c3cccc4c3n2CC[C@@H]4O)C1=O (stereo partly drawn) [(4S)-hydroxy cilansetron]?
Plasma Conc. ([1]; Day 6 1 h, Healthy): 1.60 (26) ng/mL; Plasma Conc. ([1]; Day 6 1 h, Mild): 2.26 (43) ng/mL; Plasma Conc. ([1]; Day 6 1 h, Moderate): 2.74 (58) ng/mL; Plasma Conc. ([1]; Day 6 1 h, Severe): 8.32 (40) ng/mL; AUC(0-τ) ratio Mild/Healthy ([1]; Day 6, geometric LS mean ratio (90% CI)): 119 (85, 168) %; AUC(0-τ) ratio Moderate/Healthy ([1]; Day 6, ratio (90% CI)): 174 (120, 251)* %; AUC(0-τ) ratio Renal Combined/Healthy ([1]; Day 6, ratio (90% CI)): 219 (168, 286)* %; AUC(0-τ) ratio Severe/Healthy ([1]; Day 6, ratio (90% CI)): 507 (351, 733)* %; Cmax ratio Mild/Healthy ([1]; Day 6, ratio (90% CI)): 129 (91, 181) %; Cmax ratio Moderate/Healthy ([1]; Day 6, ratio (90% CI)): 171 (118, 248)* %; Cmax ratio Renal Combined/Healthy ([1]; Day 6, ratio (90% CI)): 220 (168, 288)* %; Cmax ratio Severe/Healthy ([1]; Day 6, ratio (90% CI)): 485 (335, 702)* %; T½ ratio Mild/Healthy ([1]; Day 6, ratio (90% CI)): 108 (81, 144) %; T½ ratio Moderate/Healthy ([1]; Day 6, ratio (90% CI)): 142 (104, 193) %; T½ ratio Renal Combined/Healthy ([1]; Day 6, ratio (90% CI)): 142 (113, 177)* %; T½ ratio Severe/Healthy ([1]; Day 6, ratio (90% CI)): 186 (136, 254)* %; Plasma Conc. ([1]; Day 6 […], Healthy): 1.68 (25) ng/mL; Plasma Conc. ([1]; Day 6 […], Mild): 1.91 (35) ng/mL; Plasma Conc. ([1]; Day 6 […], Moderate): 2.98 (56) ng/mL; Plasma Conc. ([1]; Day 6 […], Severe): 8.57 (32) ng/mL; AUC(0-τ) ([1]; healthy subjects, Day 6): 12.9 (25) ng · h/mL; Cmax ([1]; healthy subjects, Day 6): 2.15 (21) ng/mL; T½ ([1]; healthy subjects, Day 6): 8.68 (29) h; Tmax ([1]; healthy subjects, Day 6): 2.00 h; Cmin ([1]; healthy subjects): 1.24 (31) ng/mL; Mean AUC(0-τ) increase vs healthy ([1]; mild impairment): 19%; Mean Cmax increase vs healthy ([1]; mild impairment): 29%; AUC(0-τ) ([1]; mild renal impairment, Day 6): 15.3 (25) ng · h/mL; Cmax ([1]; mild renal impairment, Day 6): 2.77 (22) ng/mL; T½ ([1]; mild renal impairment, Day 6): 9.31 (24) h; Tmax ([1]; mild renal impairment, Day 6): 2.00 h; Cmin ([1]; mild renal impairment): 1.76 (38) ng/mL; Mean AUC(0-τ) increase vs healthy ([1]; moderate impairment): 74%; Mean Cmax increase vs healthy ([1]; moderate impairment): 71%; AUC(0-τ) [1, 4]: 25.3 (64) ng · h/mL; Cmax [1, 4]: 4.10 (60) ng/mL; T½ [1, 4]: 12.4 (28) h; Tmax [1, 4]: 1.75 h; Cmin ([1]; moderate renal impairment): 2.71 (72) ng/mL; Mean AUC(0-τ) increase vs healthy ([1]; severe impairment): 407%; Mean Cmax increase vs healthy ([1]; severe impairment): 385%; AUC(0-τ) ([1]; severe renal impairment, Day 6): 67.0 (35) ng · h/mL; Cmax ([1]; severe renal impairment, Day 6): 11.2 (46) ng/mL; T½ ([1]; severe renal impairment, Day 6): 16.7 (45) h; Tmax ([1]; severe renal impairment, Day 6): 1.40 h; Cmin ([1]; severe renal impairment): 7.00 (35) ng/mL; AUC(0-τ) Ratio [2, 5]: 0.68; Cmax Ratio [2, 5]: 0.64; AUC(0-τ), Geom. LS Mean [2, 6]: 42.5 ng·h/mL; Cmax, Geom. LS Mean [2, 6]: 6.89 ng/mL; AUC(0-τ) [2, 6]: 47.9 (36) ng · h/mL; Cmax [2, 6]: 7.57 (33) ng/mL; T½ [2, 6]: 7.65 (17) h; Tmax [2, 6]: 3.00 h; AUC(0-τ), Geom. LS Mean [2, 7]: 29.1 ng·h/mL; Cmax, Geom. LS Mean [2, 7]: 4.39 ng/mL; AUC(0-τ) [2, 7]: 33.8 (57) ng · h/mL; Cmax [2, 7]: 5.17 (59) ng/mL; T½ [2, 7]: 9.41 (30) h; Tmax [2, 7]: 3.00 h; AUC(0-τ) decrease with hepatic impairment ([2]; in vivo): 32%; Cmax decrease with hepatic impairment ([2]; in vivo): 36%; Fraction unbound ratio All Renal Groups Combined:Healthy ([3]; 1 h): 102 (86, 121) %; Fraction unbound ratio Mild:Healthy ([3]; 1 h): 81 (65, 101) %; Fraction unbound ratio Moderate:Healthy ([3]; 1 h): 124 (98, 156) %; Fraction unbound ratio Severe:Healthy ([3]; 1 h): 106 (84, 133) %; Fraction Unbound in Serum ([3]; Day 6 1 h, Healthy): 53.6 (20) %; Fraction Unbound in Serum ([3]; Day 6 1 h, Mild): 42.8 (7) %; Fraction Unbound in Serum ([3]; Day 6 1 h, Moderate): 69.3 (45) %; Fraction Unbound in Serum ([3]; Day 6 1 h, Severe): 56.1 (15) %; Fraction Unbound in Serum ([3]; Day 6 […], Healthy): 58.0 (21) %; Fraction Unbound in Serum ([3]; Day 6 […], Mild): 46.3 (11) %; Fraction Unbound in Serum ([3]; Day 6 […], Moderate): 57.4 (28) %; Fraction Unbound in Serum ([3]; Day 6 […], Severe): 42.4 (9) %; Fraction Unbound in Serum ([3]; Day 6 predose, Healthy): 51.9 (24) %; Fraction Unbound in Serum ([3]; Day 6 predose, Mild): 48.9 (40) %; Fraction Unbound in Serum ([3]; Day 6 predose, Moderate): 54.0 (26) %; Fraction Unbound in Serum ([3]; Day 6 predose, Severe): 51.4 (30) %; Fraction unbound ratio All Renal Groups Combined:Healthy ([3]; […]): 84 (72, 99) %; Fraction unbound ratio Mild:Healthy ([3]; […]): 81 (67, 99) %; Fraction unbound ratio Moderate:Healthy ([3]; […]): 99 (80, 123) %; Fraction unbound ratio Severe:Healthy ([3]; […]): 75 (60, 93)^b %; Protein bound on average ([3]; healthy subjects): 42.0-48.1%; Fraction unbound ratio All Renal Groups Combined:Healthy ([3]; predose): 98 (79, 121) %; Fraction unbound ratio Mild:Healthy ([3]; predose): 91 (69, 121) %; Fraction unbound ratio Moderate:Healthy ([3]; predose): 104 (77, 140) %; Fraction unbound ratio Severe:Healthy ([3]; predose): 98 (73, 133) %; Plasma protein bound ([3]; therapeutic concentration range): 42-48%
